Results: patent US9234200B2, “Oligonucleotide, glucocorticoid sensitivity enhancer, pharmaceutical composition, and expression vector” (National University Corporation Tokyo University of …, priority 2011, dated 2016)
Read-outs that look alike come from different tables or passages of the source.

Legend:
GRα and GRβ [1] = conditions: HT-29 cells and MCF-7 cells; in words; cited from earlier work
GRα and GRβ [2] = test: GRα and GRβ expression levels in Raji cells transfected with oligonucleotide (RT-PCR and PCR); format: cell-based, human; conditions: for GAPDH / GRα / GRβ: expression level (band intensity), oligonucleotide 300 nM by electroporation, 24 h; for GAPDH: endogenous control;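 for GAPDH: mean of three independent experiments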
Experimental: Raji cells (manufactured by Japan Health Science Foundation) derived from human Burkitt's lymphoma were used in experiments.
Raji cells were cultured and maintained in RPMI1640 medium (manufactured by Gibco) at 37° C. in an atmosphere of 5% CO2, the RPMI1640 medium being supplemented with 10% fetal bovine serum (FBS) (manufactured by Filtoron), 100 U/ml penicillin, and 100 μg/ml streptomycin.
2×10^6 Raji cells were washed with phosphate-buffered saline (PBS) and suspended in 100 μl transfection reagent of an Amaxa cell line Nucleofector Kit V (manufactured by Lonza).
After the Raji cells were cultured in the above-described medium for 24 hours, the Raji cells were used for subsequent experiments.
The expression level of glyceraldehyde-3-phosphate dehydrogenase (GAPDH) was determined as an endogenous control.
After the Raji cells were washed with PBS, RNA was extracted using a FastPure RNA Kit (manufactured by Takara Bio Inc.), and reverse transcription was performed using a PrimeScript 1st strand cDNA synthesis kit (manufactured by Takara Bio Inc.). The obtained cDNA was amplified using Platinum Taq DNA polymerase (manufactured by Invitrogen) and PCR primers (having the base sequences shown in Table 2) specific for the gene of interest. The PCR conditions included: performing initial denaturation at 94° C. for 2 minutes; performing 35 cycles of denaturation (94° C. for 30 seconds), annealing (55° C. for 30 seconds), and extension (72° C. for 1 minute); and then performing final extension at 72° C. for 4 minutes.
After the PCR was performed, DNA was separated by […] electrophoresis on a 2% agarose gel containing ethidium bromide, and the intensity of bands was quantified using an image analyzer GEL PRINT 2000i/VGA (manufactured by Genomic Solutions).

Raji cells [3] = test: BrdU incorporation assay, glucocorticoid sensitivity of oligonucleotide-transfected Raji cells; format: cell-based, human; conditions: for BrdU incorporation: absorbance at 450 nm
Experimental: In order to examine the change of glucocorticoid sensitivity of cells caused by introduction of oligonucleotide 1, cell proliferation was quantified by a 5-bromo-2′-deoxyuridine (BrdU) incorporation assay. Dexamethasone (manufactured by Biomol) was used as a glucocorticoid. The concentration of dexamethasone was set to varied concentrations of 0 μM (no addition), 0.1 μM, 0.5 μM, 1 μM, 5 μM, and 10 μM.
Raji cells were cultured in serum-free RPMI1640 medium for 12 hours to synchronize the cell cycle, and then re-suspended in RPMI1640 medium supplemented with serum and inoculated onto a 96-well plate.
After dexamethasone was added, the cells were cultured for 22 hours. Then, BrdU was added thereto, and the cells were cultured for another 2 hours. After centrifugation, the supernatant was discarded, and the cells were dried and fixed. The fixed cells were allowed to react with a peroxidase-labeled anti-BrdU antibody for 1 hour at room temperature. Subsequently, the cells were washed three times with PBS, and tetramethylbenzidine was added thereto. When noticeable coloring was observed, the reaction was stopped by adding H2SO4 (1M). After vigorous agitation, absorbance at 450 nm was measured using a plate reader.
Using the Raji cells to which dexamethasone was not added as a control, cell proliferation inhibitory rate (%) was calculated based on the relative ratio of the obtained absorbance. Here, statistical significance was assessed with one-way analysis of variance and multiple comparison. Tukey's multiple comparison was used for the multiple comparison. A significance level of P<0.05 (vs. no addition of oligonucleotide) was regarded as a significant difference.
BrdU incorporation assay was performed in the same manner as in the above, and alternation of the glucocorticoid sensitivity of the cells caused by the introduction of any one of oligonucleotides 2 to 5 was examined. Each experiment was carried out in quadruplicate. The values shown in Table 7 are average values thereof.

ERα and ERβ = test: Estrogen receptor expression level in Raji cells transfected with oligonucleotide 1 (RT-PCR and PCR); format: cell-based, human
Experimental: Estrogen receptor (ER) has two splice variants: ERα and ERβ. It is known that SRp30c is involved in regulating the splicing of ER mRNA.
The expressions levels of ERα and ERβ in Raji cells transfected with oligonucleotide 1 were determined by RT-PCR and PCR.
Raji cells transfected with oligonucleotide 1 were obtained in the same manner as in “Cell Culture” and “Introduction of Oligonucleotide into Cells” in Example 1. The oligonucleotide 1 concentration at the time of introduction into cells was 300 nM.
After the Raji cells were washed with PBS, RNA was extracted using a FASTPURE RNA Kit (manufactured by Takara Bio Inc.), and reverse transcription was performed using a PRIMESCRIPT 1st strand cDNA synthesis kit (manufactured by Takara Bio). The obtained cDNA was amplified using PLATINUM Taq DNA polymerase (manufactured by Invitrogen) and PCR primers (having the sequences shown in Table 8) specific for the gene of interest. The PCR conditions included: performing an initial denaturation at 94° C. for 2 minutes; performing 35 cycles of denaturation (94° C. for 30 seconds), annealing (55° C. for 30 seconds), and extension (72° C. for 1 minute); and performing a final extension at 72° C. for 4 minutes.
The expression level of GAPDH as an endogenous control was determined using PCR primers of SEQ ID Nos: 10 and 11.
After the PCR was performed, DNA was separated by […] electrophoresis on a 2% agarose gel containing ethidium bromide, and the intensity of bands was quantified using an image analyzer GEL PRINT 2000i/VGA (manufactured by Genomic Solutions Inc.).

Raji cells [4] = test: BrdU incorporation assay, glucocorticoid sensitivity of oligonucleotide 4-expressing Raji cells; format: cell-based, human; conditions: for BrdU incorporation: absorbance
Experimental: In order to examine the glucocorticoid sensitivity of the oligonucleotide 4-expressin Raji cells, BrdU incorporation assay was performed in the same manner as in Example 2, and cell proliferation was quantified. The concentration of dexamethasone was set to 0 μM (no addition) or 5 μM. Each experiment was repeated in triplicate. The values shown in Table 13 are average of thereof.

GRα and GRβ [5] = test: GRα and GRβ expression levels in oligonucleotide 4-expressing Raji cells
[6] = dexamethasone 0.1 μM, triplicate, label dexamethasone = no oligonucleotide introduced
[7] = dexamethasone 0.5 μM, triplicate, label dexamethasone = no oligonucleotide introduced
[8] = dexamethasone 1 μM, triplicate, label dexamethasone = no oligonucleotide introduced
[9] = dexamethasone 5 μM, triplicate, label dexamethasone = no oligonucleotide introduced
[10] = dexamethasone 10 μM, triplicate, label dexamethasone = no oligonucleotide introduced
[11] = expression level (band intensity), oligonucleotide 1 300 nM
[12] = Raji cells constitutively expressing oligonucleotide 4
[13] = expression level (band intensity), Raji cells constitutively expressing oligonucleotide 4 (retrovirus vector)
[14] = expression level (band intensity), Raji cells constitutively expressing oligonucleotide 4 (retrovirus vector), listed as oligonucleotide 4

Nc1ncn([C@H]2C[C@H](O)[C@@H](CO)O2)c(=O)n1 [5-aza-2′-deoxycytidine]
GRα and GRβ expression levels (GRα and GRβ [1]): increase GRα expression levels while decreasing GRβ expression levels

CC(/C=C/C(=O)NO)=C\[C@@H](C)C(=O)c1ccc(N(C)C)cc1 [trichostatin A]
GRα and GRβ expression levels (GRα and GRβ [1]): increase GRα expression levels while decreasing GRβ expression levels

CCCC(=O)[O-].[Na+] [sodium butyrate]
GRα and GRβ expression levels (GRα and GRβ [1]): increase GRα expression levels while decreasing GRβ expression levels

Oligonucleotide 1: an oligonucleotide having a base sequence represented by SEQ ID NO: 1 (5′-CTTTCTGGTTTTAACCACATAACATTCTATA-3′) (listed as DNA, chemistry not given here)
GAPDH (GRα and GRβ [2]): 3033.167 | GRα (GRα and GRβ [2]): 3278.767 | GRβ (GRα and GRβ [2]): 4611.084 | GRα/GAPDH (GRα and GRβ [2]; oligonucleotide 300 nM): 1.082 | GRβ/GAPDH (GRα and GRβ [2]; oligonucleotide 300 nM): 1.519 | Relative value of GRα/GRβ (GRα and GRβ [2]; oligonucleotide 300 nM, cells not transfected = 1): 1.213 | expression level of GRβ, concentration dependency (GRα and GRβ [2]; various concentrations of oligonucleotide 1): decreased the expression level of GRβ in a concentration-dependent manner | BrdU incorporation (Raji cells [3]; dexamethasone 0 μM, triplicate): 0.556 | BrdU incorporation (Raji cells [3]; [6]): 0.372 | BrdU incorporation (Raji cells [3]; [7]): 0.286 | BrdU incorporation (Raji cells [3]; [8]): 0.292 | BrdU incorporation (Raji cells [3]; [9]): 0.271 | BrdU incorporation (Raji cells [3]; [10]): 0.279 | cell proliferation inhibitory rate (Raji cells [3]; dexamethasone 0.1 μM vs no dexamethasone, triplicate, label dexamethasone = no oligonucleotide introduced): 32.874% | cell proliferation inhibitory rate (Raji cells [3]; dexamethasone 0.5 μM vs no dexamethasone, triplicate, label dexamethasone = no oligonucleotide introduced): 48.364% | cell proliferation inhibitory rate (Raji cells [3]; dexamethasone 1 μM vs no dexamethasone, triplicate, label dexamethasone = no oligonucleotide introduced): 47.553% | cell proliferation inhibitory rate (Raji cells [3]; dexamethasone 5 μM vs no dexamethasone, triplicate, label dexamethasone = no oligonucleotide introduced): 50.624% | cell proliferation inhibitory rate (Raji cells [3]; dexamethasone 10 μM vs no dexamethasone, triplicate, label dexamethasone = no oligonucleotide introduced): 49.526% | BrdU incorporation on addition of dexamethasone, compared to Raji cells not transfected (Raji cells [3]; in words): significant reduction in BrdU incorporation | cell proliferation inhibitory rate on addition of dexamethasone, compared to Raji cells not transfected (Raji cells [3]; in words): significant increase in cell proliferation inhibitory rate | glucocorticoid sensitivity of cells (Raji cells [3]; in words): increased the glucocorticoid sensitivity of cells | GAPDH (ERα and ERβ; expression level (band intensity), endogenous control, oligonucleotide 1 300 nM): 2476.113 | ERα (ERα and ERβ; [11]): 2201.941 | ERβ (ERα and ERβ; [11]): 1299.820 | regulation of the splicing of ER mRNA (ERα and ERβ; in words): does not affect the regulation of the splicing of ER mRNA | ERα/ERβ (ERα and ERβ; oligonucleotide 1 300 nM): 1.694 | ERα/GAPDH (ERα and ERβ; oligonucleotide 1 300 nM): 0.889 | ERβ/GAPDH (ERα and ERβ; oligonucleotide 1 300 nM): 0.525 | Relative value of ERα/ERβ (ERα and ERβ; oligonucleotide 1 300 nM, cells not transfected = 1): approximately 1 | Relative value of ERα/ERβ (ERα and ERβ; oligonucleotide 1 300 nM, cells not transfected = 1, listed as 1): 1.001

C[C@@H]1C[C@H]2[C@@H]3CCC4=CC(=O)C=C[C@]4(C)[C@@]3(F)[C@@H](O)C[C@]2(C)[C@@]1(O)C(=O)CO [dexamethasone, reference compound]
inhibition at 0.1 µM (Raji cells [3]; Homo sapiens, Raji, dexamethasone 0.1 μM vs no dexamethasone, triplicate, label dexamethasone = no oligonucleotide introduced, read-out: cell proliferation inhibitory rate): 13.4% | inhibition at 0.1 µM (Raji cells [3]; Homo sapiens, Raji, dexamethasone 0.1 μM, quadruplicate (Table 7), label dexamethasone = no oligonucleotide transfected, read-out: cell proliferation inhibitory rate): 13.2% | inhibition at 0.5 µM (Raji cells [3]; Homo sapiens, Raji, dexamethasone 0.5 μM vs no dexamethasone, triplicate, label dexamethasone = no oligonucleotide introduced, read-out: cell proliferation inhibitory rate): 16.2% | inhibition at 0.5 µM (Raji cells [3]; Homo sapiens, Raji, dexamethasone 0.5 μM, quadruplicate (Table 7), label dexamethasone = no oligonucleotide transfected, read-out: cell proliferation inhibitory rate): 17.6% | inhibition at 1 µM (Raji cells [3]; Homo sapiens, Raji, dexamethasone 1 μM vs no dexamethasone, triplicate, label dexamethasone = no oligonucleotide introduced, read-out: cell proliferation inhibitory rate): 12.6% | inhibition at 1 µM (Raji cells [3]; Homo sapiens, Raji, dexamethasone 1 μM, quadruplicate (Table 7), label dexamethasone = no oligonucleotide transfected, read-out: cell proliferation inhibitory rate): 22.2% | inhibition at 5 µM (Raji cells [3]; Homo sapiens, Raji, dexamethasone 5 μM vs no dexamethasone, triplicate, label dexamethasone = no oligonucleotide introduced, read-out: cell proliferation inhibitory rate): 23.3% | inhibition at 5 µM (Raji cells [3]; Homo sapiens, Raji, dexamethasone 5 μM, quadruplicate (Table 7), label dexamethasone = no oligonucleotide transfected, read-out: cell proliferation inhibitory rate): 21.7% | inhibition at 10 µM (Raji cells [3]; Homo sapiens, Raji, dexamethasone 10 μM vs no dexamethasone, triplicate, label dexamethasone = no oligonucleotide introduced, read-out: cell proliferation inhibitory rate): 23.9% | BrdU incorporation (Raji cells [3]; [6]): 0.475 | BrdU incorporation (Raji cells [3]; [7]): 0.461 | BrdU incorporation (Raji cells [3]; [8]): 0.479 | BrdU incorporation (Raji cells [3]; [9]): 0.422 | BrdU incorporation (Raji cells [3]; [10]): 0.418 | BrdU incorporation (Raji cells [4]; dexamethasone 5 μM, label dexamethasone = Control Raji cell): 1.07

Oligonucleotide 4: an oligonucleotide having a base sequence represented by SEQ ID NO: 4 (5′-TTTGTCCCCATTATATAGCATTT-3′) (listed as DNA, chemistry not given here)
GAPDH (GRα and GRβ [2]): 2991.776 | GRα (GRα and GRβ [2]): 3157.440 | GRβ (GRα and GRβ [2]): 4592.806 | GRα/GAPDH (GRα and GRβ [2]; oligonucleotide 300 nM): 1.057 | GRβ/GAPDH (GRα and GRβ [2]; oligonucleotide 300 nM): 1.533 | cell proliferation inhibitory rate (Raji cells [3]; dexamethasone 0.1 μM, quadruplicate (Table 7), label dexamethasone = no oligonucleotide transfected): 12.464% | cell proliferation inhibitory rate (Raji cells [3]; dexamethasone 0.5 μM, quadruplicate (Table 7), label dexamethasone = no oligonucleotide transfected): 23.397% | cell proliferation inhibitory rate (Raji cells [3]; dexamethasone 1 μM, quadruplicate (Table 7), label dexamethasone = no oligonucleotide transfected): 28.863% | cell proliferation inhibitory rate (Raji cells [3]; dexamethasone 5 μM, quadruplicate (Table 7), label dexamethasone = no oligonucleotide transfected): 28.061% | BrdU incorporation (Raji cells [4]; oligonucleotide 4-expressing Raji cell, dexamethasone 0 μM): 1.13 | glucocorticoid sensitivity (Raji cells [4]; constitutive expression of oligonucleotide 4 in Raji cells, in words): increases glucocorticoid sensitivity | GRα/GAPDH (GRα and GRβ [5]; [12]): 0.747 | GRβ/GAPDH (GRα and GRβ [5]; [12]): 0.290 | GAPDH (GRα and GRβ [5]; expression level (band intensity), endogenous control, Raji cells constitutively expressing oligonucleotide 4 (retrovirus vector)): 6428.135 | GRα (GRα and GRβ [5]; [13]): 4803.456 | GRβ (GRα and GRβ [5]; [13]): 1866.325 | GRα (GRα and GRβ [5]; [14]): increases the expression level of GRα | GRβ (GRα and GRβ [5]; [14]): decreases the expression level of GRβ
